Test results from patent US12083227B2, “Solid pharmaceutical formulations for treating endometriosis, uterine fibroids, polycystic ovary syndrome or adenomyosis” (priority 2017, dated 2024).

Columns and labels:
[1] = test system: reproductive organs of monkeys; experiment: repeat-dose study in monkeys; type: in vivo, monkey; settings: repeat-dose, 75, 150, 300 and 600 mg/kg/day, all doses
Description: Based on pharmacologic actions of elagolix in humans a reversible effect on fertility may be expected in women.

[2] = lactation study in rats (elagolix in diet through gestation and lactation); type: in vivo, rat; settings: dams 400 mg/kg daily in diet
Description: Pregnant rats were given diet containing elagolix throughout the gestation and lactation periods to achieve a daily elagolix dose of 400 mg/kg. During nursing the dams and litters were divided into restricted feeding and non-restricted groups to determine whether elagolix was secreted in the mother's milk. […] In pups of the non-restricted feeding group, elagolix plasma concentrations were measurable and approximately 1% of the mother's plasma concentrations.

[3] = test system: ovulation and endometrial thickness in healthy women; experiment: 3-menstrual cycle study in healthy women; type: in vivo, human; settings: transvaginal ultrasound, 150 mg QD and 200 mg BID
[4] = acid dissociation constants by potentiometric titration; type: physicochemical
Description: The acid dissociation constants were determined by potentiometric titration method. […] The first is XH2+, where the carboxylic acid is not ionized but the secondary amine is; the molecule has an overall +1 charge, and the main species at pHs below 4.0. The second is XH, where both the carboxylic acid and the tertiary amine are ionized. […] The third is X−, where the carboxylic acid is ionized but the tertiary amine is not.

[5] = pharmacokinetics in specific populations (renal and hepatic impairment); type: in vivo, human
Description: The mean exposures are similar for women with moderate to severe or end stage renal disease (including women on dialysis) compared to women with normal renal function.
Elagolix exposures (Cmax and AUC) are similar between women with normal hepatic function and women with mild hepatic impairment. Elagolix exposures in women with moderate and severe hepatic impairment are approximately 3-fold and 7-fold, respectively, of exposures from women with normal hepatic function.

[6] = test system: fatigue in women with moderate to severe endometriosis-related pain; experiment: Phase III study of fatigue (PROMIS Fatigue SF-6a) in endometriosis pain; type: in vivo, human
Description: A Phase III study was conducted to assess the effects of elagolix for clinically meaningful reductions in pain and other symptoms. Data provided examined the impact of elagolix on fatigue in women with moderate to severe endometriosis-related pain. […] Fatigue was assessed using the Patient Reported Outcome Measurement Information System (PROMIS®), Fatigue Short Form (SF) 6a. Six items assessed a range of self-reported symptoms from mild, subjective feelings of tiredness to overwhelming, sustained sense of exhaustion that likely decreases one's ability to execute daily activities and function normally. The domain was divided into the experience of fatigue (frequency, duration and intensity) and impact of fatigue on physical, mental and social activities. All items assessed fatigue over the previous seven days. Responses to each question was filed on a 5-item Likert scale: 1—“Not at all”; 2—“A little bit”; 3—“Somewhat”; 4—“Quite a bit”; and 5—“Very much.” The questionnaire was administered at baseline and months 1, 3, and 6. Lower scores indicated less fatigue. Post-hoc, Fatigue SF-6a raw scores were converted to T-scores. The T-score rescales […] the raw score into a standardized score such that the general population has a mean of 50 and a standard deviation (SD) of 10. Analysis: […] ANCOVA controlled for treatment as main effect. Baseline Fatigue SF-6a T-score included as a covariate.

In the case of `COc1cccc(-c2c(C)n(Cc3c(F)cccc3C(F)(F)F)c(=O)n(C[C@H](NCCCC(=O)O)c3ccccc3)c2=O)c1F` [elagolix, 4-((R)-2-[5-(2-fluoro-3-methoxy-phenyl)-3-(2-fluoro-6-trifluoromethyl-benzyl)-4-methyl-2,6-dioxo-3,6-dihydro-2H-pyrimidin-1-yl]-1-phenyl-ethylamino)-butyric acid], the “reproductive organ findings (cervix, uterus and vagina)” value [1] is reported as “reversible atrophy of reproductive organs”, the “plasma concentrations in pups relative to the mother's plasma concentrations” value ([2]; rat pups of non-restricted feeding group) is reported as “approximately 1%” and the “plasma concentrations in pups” value ([2]; rat pups of restricted feeding litters, post natal day 10 and 20) is reported as “not measurable”. For the same molecule, the “mean endometrial thickness compared to the pretreatment values” [3] was “dose dependent decrease”, the “pKa (B)” value ([4]; amine) was 7.9 and the “pKa (A)” value ([4]; carboxylic acid) was 4.0. For the same molecule, the “exposures in moderate hepatic impairment relative to normal hepatic function” value ([5]; moderate hepatic impairment) was “approximately 3 fold”, the “exposures (Cmax and AUC) in renal impairment” value ([5]; moderate to severe or end stage renal disease vs normal renal function) was “not altered” and the “exposures in severe hepatic impairment relative to normal hepatic function” value [5] was “approximately 7 fold”. For the same molecule, the “exposures in severe hepatic impairment relative to normal hepatic function” value ([5]; listed as Elagolix) was about 7 fold, the “exposures (Cmax and AUC) in mild hepatic impairment” value ([5]; vs women with normal hepatic function) was “similar” and the “reduction in fatigue (PROMIS Fatigue SF-6a T-Score)” value ([6]; 200 mg, as early as Month 1) was “statistically significant reduction”. For the same molecule, the “PROMIS Fatigue SF-6a T-Score relative to placebo” value ([6]; both doses (150 mg QD, 200 mg BID) at Months 3 and 6) was “Statistically significant reductions”.
